This is an account of results in the NIST ThermoML archive (doi:10.1021/je900967j).

A short description of the series: xn = mol fraction of the nth substance listed. The conditions noted are these: 298.15 K; 101 kPa; Liquid; Dispersion; x1 = 0.
On to `OCCc1ccccc1` [2-phenylethanol] + O, for which the binary diffusion coefficient was 7.92e-10 m2/s. Regarding `OCCCCc1ccccc1` [4-phenyl-1-butanol] + O, the binary diffusion coefficient stood at 6.64e-10 m2/s. For `OCCCc1ccccc1` [3-phenyl-1-propanol] + O, the binary diffusion coefficient turned out to be 7.22e-10 m2/s. Take `OCc1ccccc1` [benzenemethanol] + O: the binary diffusion coefficient was determined as 8.3e-10 m2/s. On to `OCCCCCc1ccccc1` [1-pentanol, 5-phenyl-] + O, for which the binary diffusion coefficient turned out to be 5.32e-10 m2/s.
